Results published in JPH09183729A, “凍結乾燥ウラシルを含有する抗腫瘍医薬組成物” (priority 1995, dated 1997).
Converted amounts (≈) assume the structure as drawn.

Key:
[1] = cited from earlier work
physchem = conditions: water, saturated solution concentration in water
[2] = FT compared with 5-FU; UFT compared with 5-FU, FT and other antitumour drugs; cited from earlier work

| Compound | solubility in water ([1]; 25℃ water, Merck Index) | solubility in alcohol and ether ([1]; alcohol and ether) | solubility in cold water ([1]; cold water) | solubility (physchem) | toxicity / side effects [2] |
| --- | --- | --- | --- | --- | --- |
| O=c1cc[nH]c(=O)[nH]1 [ウラシル] | 0.358 g/100g | 難溶 | わずかに溶け | ~14.7 mg/mL (≈ 131 mM) | – |
| O=c1[nH]cc(F)c(=O)[nH]1 [5-FU, 5-fluorouracil] | – | – | – | – | 骨髄機能抑制などの重篤な副作用があり |
